Test results from the supplement of paper PMC12076712.

Key:
Assay in all cases: pIC50, kinobeads binding competition
Conditions in all cases: cell material: Jurkat lysate
AKT2 = AKT2 (UniProt P31751)
PHKG2 = target: T1, PHKG2 (UniProt P15735)
T1 sequence (whole entry): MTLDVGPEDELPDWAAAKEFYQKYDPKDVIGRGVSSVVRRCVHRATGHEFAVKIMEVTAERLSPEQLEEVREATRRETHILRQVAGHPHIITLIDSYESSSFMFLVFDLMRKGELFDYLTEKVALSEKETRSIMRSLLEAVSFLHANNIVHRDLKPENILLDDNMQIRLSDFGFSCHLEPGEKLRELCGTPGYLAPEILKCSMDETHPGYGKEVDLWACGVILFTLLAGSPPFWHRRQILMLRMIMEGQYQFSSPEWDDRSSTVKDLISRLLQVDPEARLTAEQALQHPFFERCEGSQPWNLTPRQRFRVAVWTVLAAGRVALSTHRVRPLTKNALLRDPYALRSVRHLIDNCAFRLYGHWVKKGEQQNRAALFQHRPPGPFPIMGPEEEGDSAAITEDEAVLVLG

SRPK1 = SRPK1 (UniProt Q96SB4)
SRPK1, sequence (Q96SB4 whole entry): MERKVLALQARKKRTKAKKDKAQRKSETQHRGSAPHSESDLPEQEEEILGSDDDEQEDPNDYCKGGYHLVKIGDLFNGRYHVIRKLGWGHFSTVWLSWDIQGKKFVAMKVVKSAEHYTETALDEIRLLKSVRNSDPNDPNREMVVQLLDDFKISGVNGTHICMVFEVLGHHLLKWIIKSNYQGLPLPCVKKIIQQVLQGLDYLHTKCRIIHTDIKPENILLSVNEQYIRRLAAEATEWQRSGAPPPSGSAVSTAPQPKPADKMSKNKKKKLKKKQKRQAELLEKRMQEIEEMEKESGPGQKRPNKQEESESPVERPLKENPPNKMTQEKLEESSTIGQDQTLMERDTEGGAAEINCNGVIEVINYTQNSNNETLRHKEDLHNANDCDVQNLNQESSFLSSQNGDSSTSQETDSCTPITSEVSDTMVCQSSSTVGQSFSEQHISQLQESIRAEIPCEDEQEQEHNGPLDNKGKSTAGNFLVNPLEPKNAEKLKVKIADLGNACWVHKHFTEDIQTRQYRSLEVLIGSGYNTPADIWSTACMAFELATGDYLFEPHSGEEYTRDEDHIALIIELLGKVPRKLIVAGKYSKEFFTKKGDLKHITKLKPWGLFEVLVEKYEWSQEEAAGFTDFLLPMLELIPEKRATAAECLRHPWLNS

UniProt O94804 = target: UniProt O94804
UniProt O94804, sequence (O94804 whole entry, looked up): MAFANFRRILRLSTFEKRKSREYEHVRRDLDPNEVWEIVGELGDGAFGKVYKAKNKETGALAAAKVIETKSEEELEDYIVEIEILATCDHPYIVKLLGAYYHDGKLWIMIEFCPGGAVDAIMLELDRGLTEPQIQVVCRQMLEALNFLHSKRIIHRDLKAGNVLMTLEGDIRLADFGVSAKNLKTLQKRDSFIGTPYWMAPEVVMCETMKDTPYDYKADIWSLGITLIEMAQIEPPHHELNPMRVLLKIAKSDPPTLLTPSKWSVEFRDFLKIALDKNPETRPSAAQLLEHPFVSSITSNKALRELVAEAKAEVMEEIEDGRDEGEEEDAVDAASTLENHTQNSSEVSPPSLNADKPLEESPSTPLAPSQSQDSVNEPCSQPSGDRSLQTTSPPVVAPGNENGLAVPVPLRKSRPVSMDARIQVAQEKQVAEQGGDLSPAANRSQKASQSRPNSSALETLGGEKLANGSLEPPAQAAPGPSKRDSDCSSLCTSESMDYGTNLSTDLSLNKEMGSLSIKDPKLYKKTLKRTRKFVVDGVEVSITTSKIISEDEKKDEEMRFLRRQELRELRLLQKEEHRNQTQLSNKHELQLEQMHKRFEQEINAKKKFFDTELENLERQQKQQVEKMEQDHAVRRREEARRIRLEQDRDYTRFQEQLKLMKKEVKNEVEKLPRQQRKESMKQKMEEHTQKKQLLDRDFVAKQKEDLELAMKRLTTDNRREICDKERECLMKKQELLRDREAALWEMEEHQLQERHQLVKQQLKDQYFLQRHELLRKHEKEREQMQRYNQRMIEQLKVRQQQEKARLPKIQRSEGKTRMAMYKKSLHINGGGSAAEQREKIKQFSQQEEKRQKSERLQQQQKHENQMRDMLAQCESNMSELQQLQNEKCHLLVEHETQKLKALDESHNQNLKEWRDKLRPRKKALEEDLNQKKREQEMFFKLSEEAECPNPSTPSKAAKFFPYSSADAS

MASTL = target: T2, MASTL (UniProt Q96GX5)
T2 sequence (whole entry): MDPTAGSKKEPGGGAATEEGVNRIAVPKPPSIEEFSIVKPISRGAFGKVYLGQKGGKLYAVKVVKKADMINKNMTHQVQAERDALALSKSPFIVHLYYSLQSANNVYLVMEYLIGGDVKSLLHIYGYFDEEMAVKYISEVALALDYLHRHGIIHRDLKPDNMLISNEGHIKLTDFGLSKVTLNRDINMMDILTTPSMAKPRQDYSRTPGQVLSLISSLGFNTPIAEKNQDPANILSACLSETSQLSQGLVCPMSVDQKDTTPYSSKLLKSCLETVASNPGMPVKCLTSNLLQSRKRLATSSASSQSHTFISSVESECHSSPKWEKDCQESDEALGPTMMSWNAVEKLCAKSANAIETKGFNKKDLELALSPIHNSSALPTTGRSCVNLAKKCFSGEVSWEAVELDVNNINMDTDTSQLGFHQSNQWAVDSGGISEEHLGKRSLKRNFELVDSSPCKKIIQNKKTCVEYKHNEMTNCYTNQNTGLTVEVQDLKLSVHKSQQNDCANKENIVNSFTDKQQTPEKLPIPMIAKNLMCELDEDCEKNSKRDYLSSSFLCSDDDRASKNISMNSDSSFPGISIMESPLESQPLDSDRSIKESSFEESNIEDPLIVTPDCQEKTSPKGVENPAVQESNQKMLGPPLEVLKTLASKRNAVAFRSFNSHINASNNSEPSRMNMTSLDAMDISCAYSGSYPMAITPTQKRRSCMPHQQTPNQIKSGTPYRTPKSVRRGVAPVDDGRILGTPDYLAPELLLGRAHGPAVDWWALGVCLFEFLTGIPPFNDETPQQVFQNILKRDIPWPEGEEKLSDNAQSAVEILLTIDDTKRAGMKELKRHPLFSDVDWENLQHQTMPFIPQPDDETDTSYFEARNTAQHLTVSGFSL

ARAF = ARAF (UniProt P10398)
ARAF, sequence (P10398 whole entry): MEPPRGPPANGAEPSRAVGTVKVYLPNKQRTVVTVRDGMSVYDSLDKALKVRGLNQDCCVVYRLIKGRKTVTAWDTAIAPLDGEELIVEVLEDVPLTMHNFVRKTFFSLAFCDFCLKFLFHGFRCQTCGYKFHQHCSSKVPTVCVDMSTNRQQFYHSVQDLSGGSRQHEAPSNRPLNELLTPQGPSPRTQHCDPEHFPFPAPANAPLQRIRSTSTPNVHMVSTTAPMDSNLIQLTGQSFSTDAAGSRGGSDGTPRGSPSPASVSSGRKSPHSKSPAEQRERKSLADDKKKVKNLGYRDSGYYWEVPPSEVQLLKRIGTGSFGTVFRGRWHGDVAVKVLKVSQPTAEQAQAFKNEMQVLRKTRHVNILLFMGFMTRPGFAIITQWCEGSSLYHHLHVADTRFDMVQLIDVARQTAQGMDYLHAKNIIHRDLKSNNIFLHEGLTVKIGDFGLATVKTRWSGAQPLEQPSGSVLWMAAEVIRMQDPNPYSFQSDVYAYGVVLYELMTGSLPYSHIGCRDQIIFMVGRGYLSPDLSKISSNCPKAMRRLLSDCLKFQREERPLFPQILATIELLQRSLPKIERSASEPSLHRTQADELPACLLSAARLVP

NEK3 = target: T3, NEK3 (UniProt P51956)
T3 sequence (whole entry): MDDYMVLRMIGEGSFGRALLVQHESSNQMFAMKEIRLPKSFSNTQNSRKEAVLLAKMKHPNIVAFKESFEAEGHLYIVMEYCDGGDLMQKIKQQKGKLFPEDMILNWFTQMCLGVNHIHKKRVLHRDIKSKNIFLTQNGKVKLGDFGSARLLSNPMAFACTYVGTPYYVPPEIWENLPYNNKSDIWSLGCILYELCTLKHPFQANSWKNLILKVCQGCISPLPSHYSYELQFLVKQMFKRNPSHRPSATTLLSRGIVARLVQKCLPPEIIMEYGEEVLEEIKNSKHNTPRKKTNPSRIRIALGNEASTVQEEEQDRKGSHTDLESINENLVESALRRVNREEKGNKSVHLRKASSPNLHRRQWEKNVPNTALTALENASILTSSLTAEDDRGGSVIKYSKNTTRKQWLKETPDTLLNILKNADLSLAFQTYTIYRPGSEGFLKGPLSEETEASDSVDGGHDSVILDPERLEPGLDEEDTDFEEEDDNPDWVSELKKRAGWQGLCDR

PIM3 = PIM3 (UniProt Q86V86)
KSR1 = target: T4, KSR1 (UniProt Q8IVT5)
T4 sequence (whole entry): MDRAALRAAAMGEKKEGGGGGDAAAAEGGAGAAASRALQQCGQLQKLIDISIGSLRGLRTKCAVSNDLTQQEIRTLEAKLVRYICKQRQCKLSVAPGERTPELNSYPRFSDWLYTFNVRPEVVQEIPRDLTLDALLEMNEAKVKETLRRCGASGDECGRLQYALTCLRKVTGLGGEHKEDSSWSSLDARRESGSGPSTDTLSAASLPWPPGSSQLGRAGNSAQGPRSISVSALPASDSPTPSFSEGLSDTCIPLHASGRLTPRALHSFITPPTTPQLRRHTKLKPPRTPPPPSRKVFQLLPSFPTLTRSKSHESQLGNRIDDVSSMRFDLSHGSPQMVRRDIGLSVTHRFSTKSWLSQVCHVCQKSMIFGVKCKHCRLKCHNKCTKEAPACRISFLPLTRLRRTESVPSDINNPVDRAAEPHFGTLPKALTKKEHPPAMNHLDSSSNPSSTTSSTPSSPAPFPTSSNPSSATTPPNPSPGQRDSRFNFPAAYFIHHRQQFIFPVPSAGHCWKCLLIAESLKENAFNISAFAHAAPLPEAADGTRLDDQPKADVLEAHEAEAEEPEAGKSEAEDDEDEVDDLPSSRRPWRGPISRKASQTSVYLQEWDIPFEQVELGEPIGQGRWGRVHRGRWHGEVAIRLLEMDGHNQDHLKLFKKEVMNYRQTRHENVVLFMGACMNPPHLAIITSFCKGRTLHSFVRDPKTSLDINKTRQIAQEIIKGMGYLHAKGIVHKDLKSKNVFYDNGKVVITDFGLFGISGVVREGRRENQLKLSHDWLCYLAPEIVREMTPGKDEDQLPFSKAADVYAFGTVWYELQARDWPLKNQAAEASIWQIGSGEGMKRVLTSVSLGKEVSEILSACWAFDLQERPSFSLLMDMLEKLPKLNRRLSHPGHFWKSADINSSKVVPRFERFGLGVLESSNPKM

Measured: pIC50

AKT2, sequence (P31751 whole entry): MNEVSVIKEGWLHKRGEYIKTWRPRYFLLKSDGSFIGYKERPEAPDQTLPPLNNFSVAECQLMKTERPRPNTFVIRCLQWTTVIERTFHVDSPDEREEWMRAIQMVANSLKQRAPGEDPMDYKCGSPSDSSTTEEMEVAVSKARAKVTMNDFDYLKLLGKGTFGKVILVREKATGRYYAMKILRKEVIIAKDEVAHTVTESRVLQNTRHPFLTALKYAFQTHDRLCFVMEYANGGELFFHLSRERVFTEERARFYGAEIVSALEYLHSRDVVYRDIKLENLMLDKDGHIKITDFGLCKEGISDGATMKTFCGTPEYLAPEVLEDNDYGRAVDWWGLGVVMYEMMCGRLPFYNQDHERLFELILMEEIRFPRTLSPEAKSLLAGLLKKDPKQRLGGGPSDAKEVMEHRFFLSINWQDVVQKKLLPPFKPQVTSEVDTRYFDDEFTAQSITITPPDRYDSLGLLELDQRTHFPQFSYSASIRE

CCc1cnn2c(NCc3ccc[n+]([O-])c3)cc(N3CCCC[C@H]3CCO)nc12 [dinaciclib]
< 4.52: all assays above
